Active and inactive are the calls of the source. The rule behind the calls is not given here. Numbered stars: 1 amine (or outer) side, 2 acyl side, 3 side chain; on linkers, the order of the positions; unused ones are H or OH. Square brackets hold non-standard residues; d marks the D form. Peptide text beside a SMILES is read from it. X1 = O=C1c2ccccc2[C@@](O)(CN(Cc2ccccc2)[*:1])N1CC(=O)[*:2]; X2 = O=C1c2ccccc2[C@](O)(CN(Cc2ccccc2)[*:1])N1CC(=O)[*:2]; Thz = O=C(O)[C@@H]1CSCN1
How the values were obtained:
HepG2 [1] = assay: Antitumor activity against human HepG2 cells assessed as inhibition of cell growth incubated for 48 hrs by MTT assay; type: functional, cell-based; settings: HepG2, 48 h
[2] = Cytotoxicity against mouse L929 cells assessed as cell growth inhibition incubated for 48 hrs by MTT assay; type: toxicity, cell-based
HeLa [3] = assay: Antitumor activity against human HeLa cells assessed as inhibition of cell growth by MTT assay; type: functional, cell-based
HeLa [4] = assay: cells; settings: Homo sapiens, 48 h
Description: Antitumor activity against human HeLa cells assessed as inhibition of cell growth incubated for 48 hrs by MTT assay

HepG2 [5] = assay: Effect on cell morphology in human HepG2 cells assessed as cell shrinkage at 26.1 uM incubated for 48 hrs by fluorescent inverted microscopic analysis; type: functional, cell-based
HeLa [6] = assay: Effect on cell morphology in human HeLa cells assessed as cell shrinkage at 26.1 uM incubated for 48 hrs by fluorescent inverted microscopic analysis; type: functional, cell-based
HepG2 [7] = assay: Effect on cell morphology in human HepG2 cells assessed as decrease in cell contact at 26.1 uM incubated for 48 hrs by fluorescent inverted microscopic analysis; type: functional, cell-based
HeLa [8] = assay: Effect on cell morphology in human HeLa cells assessed as decrease in cell contact at 26.1 uM incubated for 48 hrs by fluorescent inverted microscopic analysis; type: functional, cell-based
HeLa [9] = assay: Effect on cell morphology in human HeLa cells assessed as appearance of round cells at 26.1 uM incubated for 12 to 24 hrs by scanning electron microscopic analysis; type: functional, cell-based; settings: time 12-24 hrs
HeLa [10] = assay: Effect on cell morphology in human HeLa cells assessed as disappearance of finger like protrusions at 26.1 uM incubated for 12 to 24 hrs by scanning electron microscopic analysis; type: functional, cell-based; settings: time 12-24 hrs
HeLa [11] = assay: Effect on cell morphology in human HeLa cells assessed as complete disruption at 26.1 uM incubated for 48 hrs by scanning electron microscopic analysis; type: functional, cell-based
HeLa [12] = assay: Induction of cell cycle arrest in human HeLa cells assessed as accumulation at G2/M phase at 12.3 uM by RNAse A/PI staining based flow cytometric analysis; type: functional; settings: time 12-48 hrs, TDE = time-dependent effect
HeLa [13] = assay: Induction of mitochondrial membrane potential loss in human HeLa cells assessed as decrease in fluorescence intensity at 6.2 to 24.6 uM incubated for 12 to 48 hrs by Rhodamine 123 staining based flow cytometric analysis; type: functional, cell-based; settings: dose 6.2-24.6 µM, time 12-48 hrs
HeLa [14] = assay: Induction of mitochondrial membrane potential loss in human HeLa cells assessed as decrease in fluorescence intensity […] at 12.3 uM by Rhodamine 123 staining based flow cytometric analysis; type: functional, cell-based; settings: time 12-48 hrs, TDE = time-dependent effect
HeLa [15] = assay: Effect on intracellular calcium ion concentration in human HeLa assessed as increase in fluorescence intensity at 12.3 uM by Fluo-3 AM staining based flow cytometric analysis; type: functional, cell-based
HeLa [16] = assay: Antitumor activity against human HeLa cells assessed as inhibition of lactate dehydrogenase activity at 37.5 to 200 uM incubated for 48 hrs by Lactate dehydrogenase activity assay; type: functional, cell-based; settings: dose 37.5-200 µM
HeLa [17] = assay: Downregulation of MDM2 protein expression in human HeLa cells at 6.2 to 24.6 uM incubated for 48 hrs by Western blotting analysis; type: functional, cell-based; settings: dose 6.2-24.6 µM
HeLa [18] = assay: Upregulation of p53 protein expression in human HeLa cells at 6.2 to 24.6 uM incubated for 48 hrs by Western blotting analysis; type: functional, cell-based; settings: dose 6.2-24.6 µM
HeLa [19] = assay: Upregulation of cytochrome C expression in human HeLa cell cytosol at 6.2 to 24.6 uM incubated for 48 hrs by Western blotting analysis; type: functional, subcellular; settings: dose 6.2-24.6 µM

| Structure (SMILES) | IC50 (HepG2 [1]) [µM] | IC50 (HeLa [4]) [µM] | IC50 at 48 h [2] [µM] | also measured |
| --- | --- | --- | --- | --- |
| CC[C@H](C)[C@@H]1NC(=O)[C@H](CC(C)C)NC(=O)[C@@H]2CSCN2C(=O)[C@H]2CSCN2C(=O)CN2C(=O)c3ccccc3[C@@]2(O)CN(Cc2ccccc2)C1=O |  |  |  | Activity (HepG2 [5]): Active; Activity (HeLa [6]): Active; Activity (HepG2 [7]): Active; Activity (HeLa [8]): Active; Activity (HeLa [9]): Active; Activity (HeLa [10]): Active; Activity (HeLa [11]): Active; Activity (HeLa [12]): Tde; Activity (HeLa [13]): Active; Activity (HeLa [14]): Tde; Activity (HeLa [15]): Active; inhibition (HeLa [16]): Active; Activity (HeLa [17]): Active; Activity (HeLa [18]): Active; Activity (HeLa [19]): Active |
| CC[C@H](C)[C@@H]1NC(=O)[C@H](CC(C)C)NC(=O)CN2C(=O)c3ccccc3[C@@]2(O)CN(Cc2ccccc2)C(=O)[C@@H]2CSCN2C(=O)[C@@H]2CSCN2C1=O | 49 | 82.2 | 274 |  |
| CC[C@H](C)[C@@H]1NC(=O)[C@H](CC(C)C)NC(=O)[C@@H]2CCCN2C(=O)CN2C(=O)c3ccccc3[C@]2(O)CN(Cc2ccccc2)C(=O)[C@@H]2CCCN2C1=O (cyclo(IP[X2]PL)) | 33.5 | 28.2 | > 400 | IC50 (HeLa [3]): 28.2 µM |
| COc1cccc2c1C(=O)c1c(O)c3c(c(O)c1C2=O)C[C@@](O)(C(=O)CO)C[C@@H]3O[C@H]1C[C@H](N)[C@H](O)[C@H](C)O1 [DOXORUBICIN] | 73.5 |  | 326 |  |
| CC[C@H](C)[C@@H]1NC(=O)[C@H](CC(C)C)NC(=O)[C@@H]2CSCN2C(=O)[C@@H]2CSCN2C(=O)CN2C(=O)c3ccccc3[C@@]2(O)CN(Cc2ccccc2)C1=O | 24.7 | 12.3 | 70.9 |  |

Continued by falling IC50 (HepG2 [1]), values first:

| IC50 (HepG2 [1]) [µM] | IC50 (HeLa [4]) [µM] | Structure (SMILES) | IC50 at 48 h [2] [µM] | also measured |
| --- | --- | --- | --- | --- |
| 93.3 | 105 | CC[C@H](C)[C@@H]1NC(=O)[C@H](CC(C)C)NC(=O)CN2C(=O)c3ccccc3[C@@]2(O)CN(Cc2ccccc2)C(=O)[C@@H]2CCCN2C(=O)[C@@H]2CCCN2C1=O (cyclo(IPP[X1]L)) | 284 |  |
| 40.3 | 36.5 | CC[C@H](C)[C@@H]1NC(=O)[C@H](CC(C)C)NC(=O)[C@@H]2CCCN2C(=O)[C@@H]2CCCN2C(=O)CN2C(=O)c3ccccc3[C@]2(O)CN(Cc2ccccc2)C1=O (cyclo(I[X2]PPL)) | > 400 | IC50 (HeLa [3]): 36.5 µM |
| 37.7 | 32.7 | CC[C@H](C)[C@@H]1NC(=O)CN2C(=O)c3ccccc3[C@]2(O)CN(Cc2ccccc2)C(=O)[C@H](CC(C)C)NC(=O)[C@@H]2CCCN2C(=O)[C@@H]2CCCN2C1=O (cyclo(IPPL[X2])) | > 400 |  |
| 27.3 | 69.3 | CC[C@H](C)[C@@H]1NC(=O)[C@H](CC(C)C)NC(=O)[C@@H]2CSCN2C(=O)CN2C(=O)c3ccccc3[C@]2(O)CN(Cc2ccccc2)C(=O)[C@@H]2CSCN2C1=O | 293 |  |
| 26.9 | 23.7 | CC[C@H](C)[C@@H]1NC(=O)CN2C(=O)c3ccccc3[C@]2(O)CN(Cc2ccccc2)C(=O)[C@H](CC(C)C)NC(=O)[C@@H]2CSCN2C(=O)[C@@H]2CSCN2C1=O (cyclo(I[Thz][Thz]L[X2])) | > 400 |  |
